Data from US9180106B2, “Sigma receptors ligands with anti-apoptotic and/or pro-apoptotic properties, over cellular mechanisms, exhibiting prototypical cytoprotective and also anti-cancer activity” (Anavex Life Sciences Corp., priority 2009, dated 2015).
One block for each compound: values may come before it.

Key:
[1] = system: primary (drug resistant) melanoma; assay: in vivo anticancer activity in mice xenografts
Description: All molecules present strong chemical affinities (sub-nanomolar to micromolar) for α-1 receptors with antagonistic action (except AdAE and AdPhAE which are weak agonists) and with nanomolar to micromolar affinities for α-2 receptors and agonistic action. Therefore, all molecules above and their derivatives are pro-apoptotic and only at very low concentrations or doses are anti-apoptotic. All molecules above are toxic to the cancer cells: colorectal, prostate, ovarian renal, pancreas, lung, gliomas, glioblastomas leukemia, lymphomas, melanomas, sarcomas and hepatoma, with antiproliferative and cytotoxic concentrations usually lower than 10 microMolar (μM), for more than 50 of the above derivatives. […] The pharmacological profile of the above molecules is totally prototypical and original giving the possibility of a therapeutic synergy with the clinically used anticancer drugs with simultaneous antagonism and protection against the most grave secondary effects i.e., neuropathic pain and disability induced by the clinically used anticancer drugs.

ER stress = assay: protocols of acute or chronic ER and cellular stress, in vitro and in vivo; set-up: species or system mice
σ-2 receptors = σ-2 receptors (Homo sapiens, UniProt Q5BJF2); assay: affinity for σ-2 receptors; format: binding
σ-1 receptors [2] = target: T1, σ-1 receptors (Homo sapiens, UniProt Q99720); assay: agonistic/antagonistic action on σ-1 receptors
σ-1 receptors [3] = target: T1, σ-1 receptors; assay: affinity for σ-1 receptors; format: binding; conditions: read-out: affinity for σ-1 receptors (pKi) (converted)
[4] = system: scopolamine and dizocilpine (MK-801) induced amnesia or amyloid peptide β25-35 (Aβ25-35); assay: anti-amnesic action in mice; format: in vivo; conditions: per os (po)
Description: The above molecular profile is the basis for AE14 modulatory role over the G-protein coupled receptors (GPCRs) and its pharmacological properties: anti-amnesic action (antagonistic action against scopolamine and dizocilpine (MK-801) induced amnesia or amyloid peptide β25-35 (Aβ25-35), at low doses (from 0.03 mg/kg administered per os (po), in mice). This unique new profile of AE14: anti-apoptotic via agonistic sigma-1 regulation of the volume regulated chloride channels (VRCC), anti-oxidative stress via agonistic action on the sigma-1 receptors of the ER-mitochondrion.

colon = assay: in vitro cytotoxicity, colon; format: cell-based
leukaemia = assay: in vitro cytotoxicity, leukaemia; format: cell-based
lung = assay: in vitro cytotoxicity, lung; format: cell-based
[5] = system: primary (drug resistant) melanoma; assay: in vitro cytotoxicity, primary melanoma; format: cell-based
breast = assay: in vitro cytotoxicity, breast; format: cell-based
glioblastomas = assay: in vitro cytotoxicity, glioblastomas; format: cell-based
PTZ-induced tonic crises = assay: protection against pentylenetetrazole (PTZ) induced stress and tonic crises; conditions: in vitro or in vivo, on mice
[6] = system: cancer cells: colorectal, prostate, ovarian renal, pancreas, lung, gliomas, glioblastomas leukemia, lymphomas, melanomas, sarcomas and hepatoma

Sequence of σ-2 receptors (Q5BJF2 whole entry): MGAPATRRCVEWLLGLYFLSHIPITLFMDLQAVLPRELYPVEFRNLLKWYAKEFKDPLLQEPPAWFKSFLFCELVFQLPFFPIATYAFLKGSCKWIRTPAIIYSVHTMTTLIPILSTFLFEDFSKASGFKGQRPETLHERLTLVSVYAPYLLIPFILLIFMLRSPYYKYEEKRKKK
T1 sequence (Q99720 whole entry): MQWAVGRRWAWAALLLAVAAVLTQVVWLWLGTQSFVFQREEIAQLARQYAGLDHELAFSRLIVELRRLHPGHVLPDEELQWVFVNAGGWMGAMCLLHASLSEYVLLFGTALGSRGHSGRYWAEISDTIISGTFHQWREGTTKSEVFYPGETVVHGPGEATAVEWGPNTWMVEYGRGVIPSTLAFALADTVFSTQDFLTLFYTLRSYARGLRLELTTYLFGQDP

SMILES: CN(C)/N=N/c1[nH]cnc1C(N)=O [Dacarbazine]
in vivo anticancer activity [1]: inactive

affinity for σ-2 receptors (σ-2 receptors): no affinity | action on σ-1 receptors (σ-1 receptors [2]): selective σ-1 agonist | Ki (σ-1 receptors [3]): 501 nM
SMILES: CN(C)CC1CCOC1(c1ccccc1)c1ccccc1 (centres unmarked) [AE37, Tetrahydro-N,N-Dtiviethyl-2,2-Dinienyl-3-Furanomethanamine]
anti-apoptotic properties (ER stress; chronic ER and cellular stress, in vitro and in vivo on mice): high anti-apoptotic properties

action on σ-1 receptors (σ-1 receptors [2]): weak agonists
SMILES: CN(C)CC1COC2(C1)C1CC3CC(C1)CC2C3 (centres unmarked) [AdAE, (DIHYDRO-4-(DIMETHYLAMINOMETHYL)SPIRO {FURANE-2(3H),2′-TRICYCLO[3.3.1.13,7]DECANE}]

Ki (σ-2 receptors): > 10 µM | affinity for σ-2 receptors, times lower than for σ-1 (σ-2 receptors; σ-2 versus σ-1): more than 100 times | Ki (σ-1 receptors [3]): 25.1 nM
SMILES: CN(C)CC1COC(c2ccccc2)(c2ccccc2)C1 (centres unmarked) [AE14, Tetrahydro-N,N,-Dimethyl-5,5-Diphenyl-3-Furanomethanamine]
effect on ER stress (ER stress; acute or chronic cellular stress, oligopeptides or streptozocin, in vitro and in vivo on mice): antagonized the ER stress | anti-amnesic action, active doses [4]: ≥ 0.03 mg/kg

SMILES: CN(C)c1ccc2nc3ccc(=[N+](C)C)cc-3sc2c1 [MB, Methylene blue]
cytotoxicity, in vitro (colon): ~2.0 µM | cytotoxicity, in vitro (leukaemia): lower than 1.0 μM | cytotoxicity, in vitro (lung): lower than 1.0 μM | cytotoxicity, in vitro [5]: lower than 1.0 μM | cytotoxicity, in vitro (breast): ~2.0 µM | in vivo anticancer activity [1]: confirmed in vivo | cytotoxicity, in vitro (glioblastomas): ~2.0 µM

SMILES: CNCC1CCOC1(c1ccccc1)c1ccccc1 (centres unmarked) [AE37 Met, Tetrahydro-N-Methyl-2,2-Diphenyl-3-Furanomethanamine]
activity relative to AE37 (ER stress; for the properties mentioned for AE37): slightly more active than AE37 | protection against ER-mitochondrion anoxia and oxidative stress caused by PTZ (PTZ-induced tonic crises): exceptional protection

action on σ-1 receptors (σ-1 receptors [2]): weak agonists
SMILES: CN(C)CC1COC(c2ccccc2)(C23CC4CC(CC(C4)C2)C3)C1 (centres unmarked) [AdPhAE, 5-(TRICYCLO[3.3.1.13,7]DEC-1-YL)-TETRAHYDRO-N,N-DIMETHYL-5-PHENYL-3-FURANEMETHANAMINE]

SMILES: CCN(CC)CCCC(C)Nc1c2ccc(Cl)cc2nc2ccc(OC)cc12 (centres unmarked) [QNC, Quinacrine]
in vivo anticancer activity [1]: outstanding in vivo activity

SMILES: COc1ccc(CCN2CCC(Nc3nc4ccccc4n3Cc3ccc(F)cc3)CC2)cc1 [AST, Astemizole]
cytotoxicity, in vitro [6]: 3.0 to 5.0 µM
